Source: patent US20230120205A1, “NERVE CELL DEGENERATION INHIBITOR” (KYOTO UNIVERSITY, priority 2020, published 2023)

Legend:
[1] = test system: RAN translation; test: RAN translation inhibitory activity (poly-GP level by electrochemiluminescence); type: cell-based, human; details: two days after addition, poly-GP level vs DMSO; for inhibition at 1 µM / inhibition at 10 µM / inhibition at 3 µM: Homo sapiens, 48 h
Procedure: Next, the effect of the compound used in the present invention on RAN translation was examined. Among the DPRs generated by RAN translation, the poly-GP level was measured by an electrochemiluminescence system (Meso Scale Diagnostics).
ALS7 (C9orf72) cells were seeded on an assay plate in the same procedure as in Experimental Example 1. Four days after seeding, the assay medium containing no Y-27632 was added to the plate, and the cells were cultured until seven days after seeding, and the assay medium (Retinoic Acid, Doxycycline, SAG, Y-27632-free) containing the test compound at a predetermined concentration was added to the plate by medium exchange. Two days after addition of the test compound, the medium was removed, and the cells were lysed in an urea buffer consisting of 8M Urea (Wako, 219-00175), 4% CHAPS (Dojindo, 349-04722) and 30 mM Tris-HCl (pH 8.0, Nippon Gene, 312-90061). The cell lysate was added to a multi-array 384 well plate (Meso Scale Diagnostics, L21XB-4), and the plate was agitated at 700 rpm with a plate shaker (Azwan, DM-301) at room temperature, and then allowed to stand overnight at 4° C. The cell lysate was removed, a blocking buffer consisting of 5% Blocker A (Meso Scale Diagnostics, R93AA-1) and 1×TBS-T {TBS (Bio-Rad, 170-6435) containing 0.05% Tween-20 (Bio-Rad, 170-6531)} was added to the plate, and the plate was agitated at 700 rpm with a plate shaker for 1 hr at room temperature, and then washed three times with a wash buffer consisting of 0.05% Tween-20 and PBS (Wako, 162-18547). C9RANT antibody (Novus Biologicals, NBP2-25018) diluted 10,000-fold with 1×TBS-T containing 1% Blocker A was added to the plate, and the plate was agitated at 700 rpm with a plate shaker for 2 hr at 4° C., and then allowed to stand overnight at 4° C. After washing three times with the wash buffer, SULFO-TAG Goat Anti-Rabbit Antibody (Meso Scale Diagnostics, R32AB-1) diluted 500-fold with 1×TBS-T containing 1% Blocker A was added to the plate, and the plate was agitated at 700 rpm with a plate shaker for 2 hr at room temperature. After washing three times with the wash buffer, 2×MSD Read Buffer T with Surfactant (Meso Scale Diagnostics, R92TC-1) was added to the plate, and the signal derived from the C9RANT antibody was measured by MESO SECTOR S600 (Meso Scale Diagnostics).
The method for detecting the activity of the test compound is as follows.
(§1) As a negative control, the cells cultured in the assay medium supplemented with DMSO instead of the test compound were used.
RAN translation inhibitory activity of the test compound=100−X/C×100
X: poly-GP level in the test compound group, C: poly-GP level in the DMSO group

[2] = test system: ALS7 (C9orf72) cell-derived motor neurons; test: Cytotoxicity: intracellular ATP level (CellTiter-Glo); type: cell-based, human
Procedure: In order to examine the cytotoxicity of the test compound, the intracellular ATP level was measured.
ALS7 (C9orf72) cells were seeded on an assay plate in the same procedure as in Experimental Example 1. Four days after seeding, the assay medium containing no Y-27632 was added to the plate, and the cells were cultured until seven days after seeding, and the assay medium (Retinoic Acid, Doxycycline, SAG, Y-27632-free) containing the test compound at a predetermined concentration was added to the plate by medium exchange. 24 hr or 48 hr after addition of the test compound, the medium was removed, and CellTiter-Glo Luminescent Cell Viability Assay (Promega, G7570) was performed.
The method for detecting the cytotoxicity of the test compound is as follows.
as §1
The degree of the effect on the intracellular ATP level in the test compound-treated cells was defined as the ATP level of the test compound compared with the negative control, which was calculated by the following formula.
ATP level of the test compound compared to the negative control=X/C×100
X: ATP level in the test compound group, C: ATP level in the DMSO group
When the intracellular ATP level was less than 0.5 times or more than 1.5 times the intracellular ATP level in the negative control, it was judged to be cytotoxic.

SMILES | inhibition at 1 µM ([1]; 1 μM test compound) | inhibition at 10 µM ([1]; 10 μM test compound) | ATP level % compared to negative control ([2]; After 24 hr, 1 μM) | ATP level % compared to negative control ([2]; After 24 hr, 3 μM) | ATP level % compared to negative control ([2]; After 24 hr, 10 μM) | ATP level % compared to negative control ([2]; After 48 hr, 1 μM) | ATP level % compared to negative control ([2]; After 48 hr, 3 μM) | ATP level % compared to negative control ([2]; After 48 hr, 10 μM) | RAN translation inhibitory activity % ([1]; 1 μM test compound) | RAN translation inhibitory activity % ([1]; 10 μM test compound) | inhibition at 3 µM ([1]; 3 μM test compound) | RAN translation inhibitory activity % ([1]; 3 μM test compound)
CCOC(=O)N=S(C)(=O)Cc1cccc(Nc2ncnc(-c3cccc4c3OCCO4)n2)c1 (centres unmarked) [Compound No. 6, ethyl {[(3-{[4-(2,3-dihydro-1,4-benzodioxin-5-yl)-1,3,5-triazin-2-yl]amino}phenyl)methyl](methyl)oxo-λ^6-sulfanylidene}carbamate] | 16% | 21% | 89% | 107% | 130% | 77% | 71% | 124% | – | – | – | –
NS(=O)(=O)Cc1cccc(Nc2ncnc(-c3ccccc3OCc3ccccc3)n2)c1.O=C(O)C(F)(F)F [Compound No. 4a, 1-[3-({4-[2-(benzyloxy)phenyl]-1,3,5-triazin-2-yl}amino)phenyl]methanesulfonamide trifluoroacetate] | – | – | 113% | 128% | 140% | 80% | 101% | 115% | 5% | 3% | 11% | –
CCOC(=O)N=S(C)(=O)Cc1cccc(Nc2ncnc(-c3cccc4c3OCC4)n2)c1 (centres unmarked) [Compound No. 7, ethyl {[(3-{[4-(2,3-dihydro-1-benzofuran-7-yl)-1,3,5-triazin-2-yl]amino}phenyl)methyl](methyl)oxo-λ^6-sulfanylidene}carbamate] | 4% | 17% | 89% | 105% | 126% | 86% | 87% | 112% | – | – | 19% | –
COc1cc(Cl)ccc1-c1ncnc(Nc2cccc(CS(N)(=O)=O)c2)n1 [Compound No. 3, 1-(3-{[4-(4-chloro-2-methoxyphenyl)-1,3,5-triazin-2-yl]amino}phenyl)methanesulfonamide] | > 1% | 4% | 104% | 97% | 106% | 105% | 87% | 69% | – | – | 1% | –
COc1ccccc1-c1ncnc(Nc2cccc(CS(N)(=O)=O)c2)n1 [Compound No. 2, 1-(3-{[4-(2-methoxyphenyl)-1,3,5-triazin-2-yl]amino}phenyl)methanesulfonamide] | > 1% | 15% | 98% | 89% | 101% | 99% | 74% | 53% | – | – | 6% | –
CS(=N)(=O)Cc1cccc(Nc2ncnc(-c3ccccc3OCc3ccc(Cl)c(Cl)c3)n2)c1 (centres unmarked) [Compound No. 5, 4-{2-[(3,4-dichlorophenyl)methoxy]phenyl}-N-{3-[(S-methanesulfonimidoyl)methyl]phenyl}-1,3,5-triazin-2-amine] | 19% | 21% | 98% | 118% | 131% | 83% | 94% | 108% | – | – | 16% | –
NS(=O)(=O)Cc1cccc(Nc2ncnc(-c3ccccc3OCc3ccccc3)n2)c1 [Compound No. 4b, 1-[3-({4-[2-(benzyloxy)phenyl]-1,3,5-triazin-2-yl}amino)phenyl]methanesulfonamide] | – | – | 105% | 121% | 134% | 73% | 97% | 102% | 11% | 17% | – | 17%
COc1cc(F)ccc1-c1ncnc(Nc2cccc(CS(C)(=N)=O)c2)n1 (centres unmarked) [Compound No. 1, 4-(4-fluoro-2-methoxyphenyl)-N-{3-[(S-methanesulfonimidoyl)methyl]phenyl}-1,3,5-triazin-2-amine] | 1% | 18% | 92% | 107% | 134% | 91% | 89% | 122% | – | – | 19% | –
